Patent US20250171430A1, “PYRAZOLYL COMPOUNDS AS KV7 CHANNEL ACTIVATORS” (Biohaven Therapeutics Ltd., priority 2022, published 2025)

The compounds below were run against T1, Kv7.2/7.3 (Homo sapiens, UniProt O43525+O43526) (assay: Kv7.2/7.3 Activation Assay (Thallium Flux Assay)). Settings: hKV7.2/7.3 cell line; test compound at single concentration of 10 μM; fluorescence at 90 sec normalized to positive control (retigabine, 30 μM).
T1 construct: Kv7.2 tetracycline-induced, Kv7.3 constitutive
Type: cell-based
Summary of the method: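 Single-point activity at 10 μM (0.1% DMSO, HEPES-buffered saline, pH 7.4) was scored from fluorescence at 90 s relative to 30 μM retigabine. Categories were none <0.15, moderate 0.15-0.7 and high >0.7. Thallium influx after stimulus addition was followed with FluxOR II Green dye in hKv7.2/7.3 cells, Kv7.2 expressed under overnight tetracycline (10 ng/mL) induction.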
In the case of Cc1nnsc1-c1c(C2CCC2)c(NC(=O)C2CC(F)(F)C2)nn1C [Compound 225, N-(4-cyclobutyl-1-methyl-5-(4-methyl-1,2,3-thiadiazol-5-yl)-1H-pyrazol-3-yl)-3,3-difluorocyclobutane-1-carboxamide], the “Kv7.2/7.3 Activity” value is reported as “+ (“+” Moderate Activity 0.15-0.7)”. In the case of Cn1nc(NC(=O)OC2CC(F)(F)C2)c(C2CCC2)c1-c1ccc(Cl)s1 [Compound 226, 3,3-difluorocyclobutyl (5-(5-chlorothiophen-2-yl)-4-cyclobutyl-1-methyl-1H-pyrazol-3-yl)carbamate], the “Kv7.2/7.3 Activity” value is reported as “++ (“++” High Activity ≥ 0.7)”. In the case of Cn1nc(NC(=O)C2COC2)c(C2CCC2)c1-c1ccc(F)cc1 [Compound 227, N-(4-cyclobutyl-5-(4-fluorophenyl)-1-methyl-1H-pyrazol-3-yl)oxetane-3-carboxamide], the “Kv7.2/7.3 Activity” value is reported as “− (“−” No Activity < 0.15)”. In the case of Cn1nc(NC(=O)C2CS(=O)(=O)C2)c(C2CCC2)c1-c1ccc(F)cc1 [Compound 228, N-(4-cyclobutyl-5-(4-fluorophenyl)-1-methyl-1H-pyrazol-3-yl)thietane-3-carboxamide 1,1-dioxide], the “Kv7.2/7.3 Activity” value is reported as “− (“−” No Activity < 0.15)”. O=C(Nc1nn(CCO)c(-c2ccc(Cl)s2)c1C1CCC1)C1CC(F)(F)C1 [Compound 229, N-(5-(5-chlorothiophen-2-yl)-4-cyclobutyl-1-(2-hydroxyethyl)-1H-pyrazol-3-yl)-3,3-difluorocyclobutane-1-carboxamide] was tested, and the “Kv7.2/7.3 Activity” value was “++ (“++” High Activity ≥ 0.7)”. For Cn1nc(NC(=O)C[C@@H]2CC(F)(F)C2(F)F)c(C2CCC2)c1-c1ccc(Cl)s1 [Compound 230, (R)-N-(5-(5-chlorothiophen-2-yl)-4-cyclobutyl-1-methyl-1H-pyrazol-3-yl)-2-(2,2,3,3-tetrafluorocyclobutyl)acetamide], the “Kv7.2/7.3 Activity” value was “++ (“++” High Activity ≥ 0.7)”. With Cn1nc(NC(=O)C[C@H]2CC(F)(F)C2(F)F)c(C2CCC2)c1-c1ccc(Cl)s1 [Compound 231, (S)-N-(5-(5-chlorothiophen-2-yl)-4-cyclobutyl-1-methyl-1H-pyrazol-3-yl)-2-(2,2,3,3-tetrafluorocyclobutyl)acetamide] the “Kv7.2/7.3 Activity” value was “++ (“++” High Activity ≥ 0.7)”. With Cn1nc(NC(=O)C23CC(C(F)(F)F)(C2)C3)c(C2CCC2)c1-c1ccc(Cl)s1 [Compound 232, N-(5-(5-chlorothiophen-2-yl)-4-cyclobutyl-1-methyl-1H-pyrazol-3-yl)-3-(trifluoromethyl)bicyclo[1.1.1]pentane-1-carboxamide] the “Kv7.2/7.3 Activity” value was “++ (“++” High Activity ≥ 0.7)”. For CO[C@@H](CC(=O)Nc1nn(C)c(-c2ccc(Cl)s2)c1C1CCC1)C(F)(F)F [Compound 233, (S)-N-(5-(5-chlorothiophen-2-yl)-4-cyclobutyl-1-methyl-1H-pyrazol-3-yl)-4,4,4-trifluoro-3-methoxybutanamide], the “Kv7.2/7.3 Activity” value was “++ (“++” High Activity ≥ 0.7)”. C[C@@H](C(=O)Nc1nn(C)c(-c2ccc(Cl)s2)c1C1CCC1)C1(C(F)(F)F)CC1 [Compound 234, (R)-N-(5-(5-chlorothiophen-2-yl)-4-cyclobutyl-1-methyl-1H-pyrazol-3-yl)-2-(1-(trifluoromethyl)cyclopropyl)propanamide] was tested, and the “Kv7.2/7.3 Activity” value was “++ (“++” High Activity ≥ 0.7)”. Cn1nc(NC(=O)C[C@@H]2CC(F)(F)C2(F)F)c(C2CCC2)c1-c1ccc(F)c(F)c1 [Compound 235, (R)-N-(4-cyclobutyl-5-(3,4-difluorophenyl)-1-methyl-1H-pyrazol-3-yl)-2-(2,2,3,3-tetrafluorocyclobutyl)acetamide] was tested, and the “Kv7.2/7.3 Activity” value was “++ (“++” High Activity ≥ 0.7)”. Cn1nc(NC(=O)C[C@H]2CC(F)(F)C2(F)F)c(C2CCC2)c1-c1ccc(F)c(F)c1 [Compound 236, (S)-N-(4-cyclobutyl-5-(3,4-difluorophenyl)-1-methyl-1H-pyrazol-3-yl)-2-(2,2,3,3-tetrafluorocyclobutyl)acetamide] was tested, and the “Kv7.2/7.3 Activity” value was “++ (“++” High Activity ≥ 0.7)”. For Cn1nc(NC(=O)N[C@H]2CCC(F)(F)C2)c(C2CCC2)c1-c1ccc(F)cc1 [Compound 237, (S)-1-(4-cyclobutyl-5-(4-fluorophenyl)-1-methyl-1H-pyrazol-3-yl)-3-(3,3-difluorocyclopentyl)urea], the “Kv7.2/7.3 Activity” value was “+ (“+” Moderate Activity 0.15-0.7)”. With Cn1nc(NC(=O)N[C@@H]2CCC(F)(F)C2)c(C2CCC2)c1-c1ccc(F)cc1 [Compound 238, (R)-1-(4-cyclobutyl-5-(4-fluorophenyl)-1-methyl-1H-pyrazol-3-yl)-3-(3,3-difluorocyclopentyl)urea] the “Kv7.2/7.3 Activity” value was “+ (“+” Moderate Activity 0.15-0.7)”. For Cc1nnc(-c2c(C3CCC3)c(NC(=O)CC3CC(F)(F)C3)nn2C)s1 [Compound 239, N-(4-cyclobutyl-1-methyl-5-(5-methyl-1,3,4-thiadiazol-2-yl)-1H-pyrazol-3-yl)-2-(3,3-difluorocyclobutyl)acetamide], the “Kv7.2/7.3 Activity” value was “− (“−” No Activity < 0.15)”. For Cn1nc(NC(=O)NCC(F)(F)F)c(C2CCC2)c1-c1ccc(F)cc1 [Compound 240, 1-(4-cyclobutyl-5-(4-fluorophenyl)-1-methyl-1H-pyrazol-3-yl)-3-(2,2,2-trifluoroethyl)urea], the “Kv7.2/7.3 Activity” value was “+ (“+” Moderate Activity 0.15-0.7)”. With Cn1nc(NC(=O)OC2CC(F)(F)C2)c(C2CCC2)c1-c1ccc(F)cc1 [Compound 241, 3,3-difluorocyclobutyl (4-cyclobutyl-5-(4-fluorophenyl)-1-methyl-1H-pyrazol-3-yl)carbamate] the “Kv7.2/7.3 Activity” value was “++ (“++” High Activity ≥ 0.7)”. For Cn1nc(NC(=O)NCC2CC(F)(F)C2)c(C2CCC2)c1-c1ccc(F)cc1 [Compound 242, 1-(4-cyclobutyl-5-(4-fluorophenyl)-1-methyl-1H-pyrazol-3-yl)-3-((3,3-difluorocyclobutyl)methyl)urea], the “Kv7.2/7.3 Activity” value was “+ (“+” Moderate Activity 0.15-0.7)”. For Cn1nc(NC(=O)OCC2CC(F)(F)C2)c(C2CCC2)c1-c1ccc(F)cc1 [Compound 243, (3,3-difluorocyclobutyl)methyl (4-cyclobutyl-5-(4-fluorophenyl)-1-methyl-1H-pyrazol-3-yl)carbamate], the “Kv7.2/7.3 Activity” value was “++ (“++” High Activity ≥ 0.7)”. Cn1nc(NC(=O)NC2CC3(C2)CC(F)(F)C3)c(C2CCC2)c1-c1ccc(F)cc1 [Compound 244, 1-(4-cyclobutyl-5-(4-fluorophenyl)-1-methyl-1H-pyrazol-3-yl)-3-(6,6-difluorospiro[3.3]heptan-2-yl)urea] was tested, and the “Kv7.2/7.3 Activity” value was “− (“−” No Activity < 0.15)”. Cn1nc(NC(=O)NC(C)(C)C)c(C2CCC2)c1-c1ccc(F)cc1 [Compound 245, 1-(tert-butyl)-3-(4-cyclobutyl-5-(4-fluorophenyl)-1-methyl-1H-pyrazol-3-yl)urea] was tested, and the “Kv7.2/7.3 Activity” value was “+ (“+” Moderate Activity 0.15-0.7)”. For COCCNC(=O)Nc1nn(C)c(-c2ccc(F)cc2)c1C1CCC1 [Compound 246, 1-(4-cyclobutyl-5-(4-fluorophenyl)-1-methyl-1H-pyrazol-3-yl)-3-(2-methoxyethyl)urea], the “Kv7.2/7.3 Activity” value was “− (“−” No Activity < 0.15)”. Cn1nc(NC(=O)C2CC(F)(F)C2)c(C2CCC2)c1-c1ccc(C(C)(C)O)s1 [Compound 247, N-(4-cyclobutyl-5-(5-(2-hydroxypropan-2-yl)thiophen-2-yl)-1-methyl-1H-pyrazol-3-yl)-3,3-difluorocyclobutane-1-carboxamide] was tested, and the “Kv7.2/7.3 Activity” value was “− (“−” No Activity < 0.15)”. Cn1nc(NC(=O)C2CSC2)c(C2CCC2)c1-c1ccc(Cl)s1 [Compound 248, N-(5-(5-chlorothiophen-2-yl)-4-cyclobutyl-1-methyl-1H-pyrazol-3-yl)thietane-3-carboxamide] was tested, and the “Kv7.2/7.3 Activity” value was “++ (“++” High Activity ≥ 0.7)”. In the case of Cn1nc(NC(=O)C2CC3(C2)CC(F)(F)C3)c(C2CCC2)c1-c1ccc(Cl)s1 [Compound 249, N-(5-(5-chlorothiophen-2-yl)-4-cyclobutyl-1-methyl-1H-pyrazol-3-yl)-6,6-difluorospiro[3.3]heptane-2-carboxamide], the “Kv7.2/7.3 Activity” value is reported as “++ (“++” High Activity ≥ 0.7)”. For Cn1nc(NC(=O)CC2CC(F)(F)C2)c(C2CCC2)c1-c1ccc(Cl)c(F)c1 [Compound 250, N-(5-(4-chloro-3-fluorophenyl)-4-cyclobutyl-1-methyl-1H-pyrazol-3-yl)-2-(3,3-difluorocyclobutyl)acetamide], the “Kv7.2/7.3 Activity” value was “++ (“++” High Activity ≥ 0.7)”. With Cn1nc(NC(=O)NCC(C)(C)C)c(C2CCC2)c1-c1ccc(F)cc1 [Compound 251, 1-(4-cyclobutyl-5-(4-fluorophenyl)-1-methyl-1H-pyrazol-3-yl)-3-neopentylurea] the “Kv7.2/7.3 Activity” value was “+ (“+” Moderate Activity 0.15-0.7)”. With Cn1nc(NC(=O)NC2(C)COC2)c(C2CCC2)c1-c1ccc(F)cc1 [Compound 252, 1-(4-cyclobutyl-5-(4-fluorophenyl)-1-methyl-1H-pyrazol-3-yl)-3-(3-methyloxetan-3-yl)urea] the “Kv7.2/7.3 Activity” value was “+ (“+” Moderate Activity 0.15-0.7)”. In the case of Cn1nc(NC(=O)[C@@H]2C[C@@H]2F)c(C2CCC2)c1-c1ccc(F)cc1 [Compound 253, (1S,2S)-N-(4-cyclobutyl-5-(4-fluorophenyl)-1-methyl-1H-pyrazol-3-yl)-2-fluorocyclopropane-1-carboxamide], the “Kv7.2/7.3 Activity” value is reported as “− (“−” No Activity < 0.15)”. In the case of Cn1nc(NC(=O)C[C@@H]2CC(F)(F)C2(F)F)c(C2CCC2)c1-c1ccc(F)cn1 [Compound 254, (R)-N-(4-cyclobutyl-5-(5-fluoropyridin-2-yl)-1-methyl-1H-pyrazol-3-yl)-2-(2,2,3,3-tetrafluorocyclobutyl)acetamide], the “Kv7.2/7.3 Activity” value is reported as “++ (“++” High Activity ≥ 0.7)”. In the case of Cn1nc(NC(=O)C2CC(F)(F)C2)c(C2CCC2)c1-c1cc(F)cc(F)c1 [Compound 255, N-(4-cyclobutyl-5-(3,5-difluorophenyl)-1-methyl-1H-pyrazol-3-yl)-3,3-difluorocyclobutane-1-carboxamide], the “Kv7.2/7.3 Activity” value is reported as “++ (“++” High Activity ≥ 0.7)”.
